Laboratory results taken from patent publication US7214707B2, “Dimeric compounds and their use as anti-viral agents” (Biota Scientific Management Pty Ltd., priority 2001, dated 2007).
Converted amounts (≈) assume the structure as drawn. Structures can show the parent of a compound that is named as a salt. Where two headings read alike, the source gives them in different places.

What was measured:
[1] = system: A/Victoria/3/75 BVLV017 (H3N2); test: Plaque reduction assay (PRA) in MDCK cells; type: cell-based; conditions: Influenza A virus, read-out: EC50 PRA A/Vic
[2] = system: A/New Caledonia/20/99 BVLV008 (H1N1); test: Plaque reduction assay (PRA) in MDCK cells; type: cell-based; conditions: Influenza A virus, read-out: EC50 PRA A/New
[3] = system: A/Panama/2007/99 BVLV008 (H3N2); test: Plaque reduction assay (PRA) in MDCK cells; type: cell-based; conditions: Influenza A virus, read-out: EC50 PRA A/Pan
B/Hong Kong/5/72 BVLV012 = test: Plaque reduction assay (PRA) in MDCK cells; type: cell-based, influenza virus; conditions: read-out: EC50 PRA B/HongK
A/WSN/33 BVLV09 (H1N1) = test: Plaque reduction assay (PRA) in MDCK cells; type: cell-based; conditions: Influenza A virus, read-out: EC50 PRA A/WSN
[4] = system: A/Sydney/5/97 BVLV015 (H3N2); test: Plaque reduction assay (PRA) in MDCK cells; type: cell-based; conditions: Influenza A virus, read-out: EC50 PRA A/Syd
[5] = system: A/Bayem/7/95 BVL006 (H1N1); test: Plaque reduction assay (PRA) in MDCK cells; type: cell-based; conditions: Influenza A virus, read-out: EC50 PRA A/Bay
B/Harbin/7/95 BVLV008 = test: Plaque reduction assay (PRA) in MDCK cells; type: cell-based, influenza virus; conditions: read-out: EC50 PRA B/Harb
[6] = Rat lung retention after intra-tracheal dosing (long duration of action); conditions: in vivo
Procedure: Rodents are anaesthetised and dosed with compound of interest by the intra-tracheal route at a dose volume of 0.8 ml/kg. The rodent is then held in the vertical position until full recovery is achieved. […] Any analytical method suitable for detection of this type of compound may be used. The time at which levels of compound fall below the sensitivity of the analytical techniques identified will determine the residency time of the compound in lung tissue.
Please note that all experiments included a co-dosed internal standard, namely compound 3 of International Patent Publication No. WO 02/20514, to permit comparison. The data are expressed as a ratio with respect to this compound, the structure of which is shown below.
The data for compound A is included for comparison purposes.

Influenza A/Sydney/5/97 = test: Cytopathic effect (CPE) assay in MDCK cells, MTT readout; type: cell-based, influenza virus; conditions: concentration inhibiting CPE by 50%, up to 72 hours
Influenza B/Harbin/7/95 = test: as above; type: cell-based, influenza virus; conditions: concentration inhibiting CPE by 50%, up to 72 hours
[7] = system: B/Yamanashi/166/98 BVLV007; test: Plaque reduction assay (PRA) in MDCK cells; type: cell-based; conditions: influenza B virus, read-out: EC50 PRA B/Yam, reduces plaque numbers by 50%, MDCK cells
[8] = reduces plaque numbers by 50%, MDCK cells

| SMILES | EC50 [1, 8] | EC50 [2, 8] | EC50 (B/Hong Kong/5/72 BVLV012) | Ratio Mean (lung) (cmpd)/PCT AU01/01128 compound 3 ([6]; 0.1 mg/kg, 48 h) | Ratio Mean (lung) (cmpd)/PCT AU01/01128 compound 3 ([6]; 0.1 mg/kg, 168 h) | ID50 A/Sydney/5/97 (Influenza A/Sydney/5/97) | ID50 B/Harbin/7/95 (Influenza B/Harbin/7/95) | EC50 [7] | also measured |
| --- | --- | --- | --- | --- | --- | --- | --- | --- | --- |
| NC12CC3CC(CC(C3)C1)C2 [Amantadine] | 220 ng/mL (≈ 1450 nM) | 11 ng/mL (≈ 72.7 nM) | > 10000 ng/mL | – | – | – | – | – | EC50 [3, 8]: 157 ng/mL (≈ 1040 nM) |
| CC(=O)N[C@H]1[C@H]([C@H](O)[C@H](O)CO)OC(C(=O)O)=C[C@@H]1N=C(N)N [Compound A, 4-guanidino-2-deoxy-2,3-dehydro-N-acetylneuraminic acid, reference compound] | – | – | 21 ng/mL (≈ 63.2 nM) | 0.26 | 0.08 | – | – | – | EC50 (A/WSN/33 BVLV09 (H1N1)): 56 ng/mL (≈ 169 nM); EC50 [1]: 5.5 ng/mL (≈ 16.6 nM); EC50 [4]: 2.4 ng/mL (≈ 7.22 nM); EC50 [2]: 0.27 ng/mL (≈ 0.812 nM); EC50 [3]: 2.7 ng/mL (≈ 8.12 nM); EC50 ([5]; H1N1, MDCK): 35 ng/mL (≈ 105 nM); EC50 (B/Harbin/7/95 BVLV008): 0.19 ng/mL (≈ 0.572 nM) |
| CC(=O)N[C@H]1[C@H]([C@H](OC(=O)NCCc2cccc(CCNC(=O)O[C@@H]([C@@H]3OC(C(=O)O)=C[C@H](NC(=N)N)[C@H]3NC(C)=O)[C@H](O)CO)c2)[C@H](O)CO)OC(C(=O)O)=C[C@@H]1NC(=N)N [Example 1, (2R,3R,4S)-3-(acetylamino)-2-{(1R,2R)-1-[({[2-(3-{2-[({[(1R,2R)-1-((2R,3R,4S)-3-(acetylamino)-4-{[amino(imino)methyl]amino}-6-carboxy-3,4-dihydro-2H-pyran-2-yl)-2,3-dihydroxypropyl]oxy}carbonyl)amino]ethyl}phenyl)ethyl]amino}carbonyl)oxy]-2,3-dihydroxypropyl}-4-{[amino(imino)methyl]amino}-3,4-dihydro-2H-pyran-6-carboxylic Acid] | – | – | – | – | – | 84 ng/mL (≈ 95.4 nM) | 0.2 ng/mL (≈ 0.227 nM) | – | – |
| CC(=O)N[C@H]1[C@H]([C@H](OC(=O)NCCc2ccc(CCNC(=O)O[C@@H]([C@@H]3OC(C(=O)O)=C[C@H](NC(=N)N)[C@H]3NC(C)=O)[C@H](O)CO)cc2)[C@H](O)CO)OC(C(=O)O)=C[C@@H]1NC(=N)N [Example 2, (2R,3R,4S)-3-(acetylamino)-2-{(1R,2R)-1-[({[2-(4-{2-[({[(1R,2R)-1-((2R,3R,4S)-3-(acetylamino)-4-{[amino(imino)methyl]amino}-6-carboxy-3,4-dihydro-2H-pyran-2-yl)-2,3-dihydroxypropyl]oxy}carbonyl)amino]ethyl}phenyl)ethyl]amino}carbonyl)oxy]-2,3-dihydroxypropyl}-4-{[amino(imino)methyl]amino}-3,4-dihydro-2H-pyran-6-carboxylic Acid] | – | – | – | 0.44 | 0.34 | – | – | – | concentration at 48 h ([6]; 0.1 mg/kg, (cmpd) ng/g): 740 ng/g; concentration at 48 h ([6]; 0.1 mg/kg, Mean (cmpd) ng/g): 603 ng/g; concentration at 168 h ([6]; 0.1 mg/kg, Mean (cmpd) ng/g): 259 ng/g |
| CC(=O)N[C@H]1[C@H]([C@H](OC(=O)NCc2ccc(S(=O)(=O)c3ccc(CNC(=O)O[C@@H]([C@@H]4OC(C(=O)O)=C[C@H](NC(=N)N)[C@H]4NC(C)=O)[C@H](O)CO)cc3)cc2)[C@H](O)CO)OC(C(=O)O)=C[C@@H]1NC(=N)N [Example 4, (2R,3R,4S)-3-(acetylamino)-2-[(1R,2R)-1-({[({4-[(4-{[({[(1R,2R)-1((2R,3R,4S)-3-(acetylamino)-4-{[amino(imino)methyl]amino}-6-carboxy-3,4-dihydro-2H-pyran-2-yl)-2,3-dihydroxypropyl]oxy}-carbonyl)amino]methyl}phenyl)sulfonyl]phenyl}methyl)amino]carbonyl}oxy)-2,3-dihydroxypropyl]-4-{[amino(imino)methyl]amino}-3,4-dihydro-2H-pyran-6-carboxylic Acid] | – | – | – | – | – | >100 ng/mL | <0.05 ng/mL | – | – |
| CC(=O)N[C@H]1[C@H]([C@H](OC(=O)Nc2ccc(Cc3ccc(NC(=O)O[C@@H]([C@@H]4OC(C(=O)O)=C[C@H](NC(=N)N)[C@H]4NC(C)=O)[C@H](O)CO)cc3)cc2)[C@H](O)CO)OC(C(=O)O)=C[C@@H]1NC(=N)N [Example 8, (2R,3R,4S)-3-(acetylamino)-2-{(1R,2R)-1-[({[4-({4-[({[(1R,2R)-1-((2R,3R,4S)-3-(acetylamino)-4-{[amino(imino)methyl]amino}-6-carboxy-3,4-dihydro-2H-pyran-2-yl)-2,3-dihydroxypropyl]oxy}carbonyl)amino]phenyl}methyl)phenyl]amino}carbonyl)oxy]-2,3-dihydroxypropyl}-4-{[amino(imino)methyl]amino}-3,4-dihydro-2H-pyran-6-carboxylic Acid bis TFA Salt] | 0.003 ng/mL | 0.0001 ng/mL | – | – | – | 13 ng/mL | <0.05 ng/mL | 0.02 ng/mL | EC50 (B/Harbin/7/95 BVLV008): < 0.0001 ng/mL; Ratio Mean (lung) (cmpd)/PCT AU01/01128 compound 3 ([6]; 0.4 mg/kg, 48 h): 1.05; (lung) ([6]; 0.4 mg/kg, 168 h): 3571 ng/g; Ratio Mean (lung) (cmpd)/PCT AU01/01128 compound 3 ([6]; 0.4 mg/kg, 168 h): 2.28; concentration at 48 h ([6]; 0.4 mg/kg, (lung) ng/g): 3800 ng/g; concentration at 168 h ([6]; 0.4 mg/kg, (lung) ng/g): 3230 ng/g; concentration at 48 h ([6]; 0.4 mg/kg, Mean (lung) ng/g): 3250 ng/g; concentration at 168 h ([6]; 0.4 mg/kg, Mean (lung) ng/g): 3400 ng/g |
| CC(=O)N[C@H]1[C@H]([C@H](OC(=O)NCc2ccc(-c3ccc(CNC(=O)O[C@@H]([C@@H]4OC(C(=O)O)=C[C@H](NC(=N)N)[C@H]4NC(C)=O)[C@H](O)CO)cc3)cc2)[C@H](O)CO)OC(C(=O)O)=C[C@@H]1NC(=N)N [Example 9, (2R,3R,4S)-3-(acetylamino)-2-{(1R,2R)-1-[({[(4′-{[({[(1R,2R)-1-((2R,3R,4S)-3-(acetylamino)-4-{[amino(imino)methyl]amino}-6-carboxy-3,4-dihydro-2H-pyran-2-yl)-2,3-dihydroxypropyl]oxy}carbonyl)amino]methyl}-1,1′-biphenyl-4-yl)methyl]amino}carbonyl)oxy]-2,3-dihydroxypropyl}-4-{[amino(imino)methyl]amino}-3,4-dihydro-2H-pyran-6-carboxylic Acid bis TFA Salt] | – | 0.003 ng/mL | 0.23 ng/mL | 0.52 | 0.45 | >100 ng/mL | 0.08 ng/mL | 0.006 ng/mL | EC50 [4, 8]: 3.7 ng/mL; EC50 ([5]; H1N1, reduces plaque numbers by 50%, MDCK cells): > 1 ng/mL; concentration at 48 h ([6]; 0.1 mg/kg, Mean (cmpd) ng/g): 1400 ng/g; concentration at 168 h ([6]; 0.1 mg/kg, Mean (cmpd) ng/g): 835 ng/g |
| CCOC(=O)C1=C[C@@H](OC(CC)CC)[C@H](NC(C)=O)[C@@H](N)C1 [Oseltamivir] | 0.11 ng/mL (≈ 0.352 nM) | 0.23 ng/mL (≈ 0.736 nM) | 32 ng/mL (≈ 102 nM) | – | – | – | – | 0.7 ng/mL (≈ 2.24 nM) | EC50 [3, 8]: 0.3 ng/mL (≈ 0.96 nM) |
